Measured values from patent US20260256923A1, “NEW RECRUITMENT ELEMENT OF UBIQUITIN LIGASE AND USE THEREOF” (SHENZHEN LINGGENE BIOTECH CO., LTD., priority 2023, published 2026).

Tests used:
[1] = test system: HeLa cervical cancer cells; experiment: Binding of Cy5-labeled oligonucleotide to HeLa cells, flow cytometer; assay type: cell-based; details: 500 nM Cy5-labeled, 1.5 h
Experimental: When AS1411 was selected as the GRO, the model analysis for AS1411 as the novel recruitment element of MDM2 and a PROTAC constructed by using AS1411 as the novel recruitment element of MDM2 was specifically as follows: Since NCL is highly expressed in tumor cells and specifically distributed on the surface of tumor cells, the binding ability of AS1411 to HeLa cervical cancer cells was examined. HeLa cells were incubated with 500 nM CRO (cytosine-rich oligonucleotide, negative control) and AS1411 labeled by Cy5 for 1.5 h. […] AS1411 is set forth in SEQ ID NO: 1, and the sequence of the CRO is set forth in SEQ ID NO: 13.

MDM2 [2] = target: T1, MDM2 (Homo sapiens, UniProt Q00987); experiment: Pull-down with biotin-labeled AS1411 in HeLa cells transfected with si-NC or si-NCL; assay type: cell-based; parameters: HeLa cervical cancer cells were lysed with an IP lysis solution; endogenous in cells; host or cells: HeLa; details: 500 nM biotin-labeled, 6 h, si-NCL vs si-NC
T1 sequence (P19338 2-710 partner limits assumed): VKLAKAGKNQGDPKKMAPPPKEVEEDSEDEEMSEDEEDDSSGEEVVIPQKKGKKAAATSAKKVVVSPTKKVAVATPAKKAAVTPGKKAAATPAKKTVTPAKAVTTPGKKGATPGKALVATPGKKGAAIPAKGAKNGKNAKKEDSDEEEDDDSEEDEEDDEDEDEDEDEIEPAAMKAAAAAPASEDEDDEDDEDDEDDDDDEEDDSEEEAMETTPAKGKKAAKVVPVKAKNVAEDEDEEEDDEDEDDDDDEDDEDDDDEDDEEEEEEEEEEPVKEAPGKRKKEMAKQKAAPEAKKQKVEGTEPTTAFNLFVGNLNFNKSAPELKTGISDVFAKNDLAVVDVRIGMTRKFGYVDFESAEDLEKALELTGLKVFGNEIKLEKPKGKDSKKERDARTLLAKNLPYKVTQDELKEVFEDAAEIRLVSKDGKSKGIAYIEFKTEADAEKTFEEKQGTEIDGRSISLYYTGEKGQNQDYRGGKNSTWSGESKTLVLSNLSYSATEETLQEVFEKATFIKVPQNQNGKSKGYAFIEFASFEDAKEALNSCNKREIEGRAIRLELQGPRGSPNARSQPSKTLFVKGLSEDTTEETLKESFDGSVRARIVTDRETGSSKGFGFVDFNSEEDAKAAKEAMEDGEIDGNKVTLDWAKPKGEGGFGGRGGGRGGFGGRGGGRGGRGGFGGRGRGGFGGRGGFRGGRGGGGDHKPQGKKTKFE
T1 sequence (Q00987 whole entry): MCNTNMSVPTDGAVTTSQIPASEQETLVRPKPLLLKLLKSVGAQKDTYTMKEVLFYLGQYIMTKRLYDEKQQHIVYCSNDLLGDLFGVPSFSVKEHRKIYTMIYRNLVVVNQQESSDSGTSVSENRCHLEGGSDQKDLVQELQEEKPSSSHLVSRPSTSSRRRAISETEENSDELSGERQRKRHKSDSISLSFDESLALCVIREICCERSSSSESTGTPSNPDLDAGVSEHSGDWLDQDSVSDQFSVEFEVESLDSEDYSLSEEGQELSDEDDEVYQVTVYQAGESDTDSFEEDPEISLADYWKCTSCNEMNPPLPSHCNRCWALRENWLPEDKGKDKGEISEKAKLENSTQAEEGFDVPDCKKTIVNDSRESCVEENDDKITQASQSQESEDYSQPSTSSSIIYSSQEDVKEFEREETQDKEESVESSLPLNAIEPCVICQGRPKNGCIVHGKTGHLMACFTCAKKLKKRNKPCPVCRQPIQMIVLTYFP
Experimental: HeLa cells were transfected with negative control siRNA (si-NC, SEQ ID NO: 16) or NCL siRNA (si-NCL, SEQ ID NO: 17) and subsequently incubated with 500 nM biotin-labeled AS1411 for 6 h. After cell lysis, the supernatant was incubated with streptavidin-coated magnetic beads at 4° C. overnight. The bound AS1411 and its captured proteins on the magnetic beads were eluted with an eluent, and the pull-down products were detected by western blot assay.

MDM2 [3] = target: T1, MDM2; experiment: Biotin-oligonucleotide pull-down from HeLa cell lysate, western blot (MDM2); assay type: binding; parameters: HeLa cervical cancer cells were lysed with an IP lysis solution; endogenous in cells; host or cells: HeLa; details: 5′-biotin label, 0 nM-20 μM
Experimental: HeLa cervical cancer cells were lysed with an IP lysis solution (purchased from Thermo Scientific, Cat. No.: 87788) and then incubated with a CRO (cytosine-rich oligonucleotide, negative control, SEQ ID NO: 13), AS1411, or iSN04 labeled by biotin at the 5′ end at different concentrations (0 nM, 200 nM, 500 nM, 1 μM, 5 μM, 10 μM, and 20 μM) at 4° C. for 6h. Subsequently, streptavidin agarose gel beads (purchased from cytiva, Cat. No.: 17511301) were added, and the mixture was further incubated at 4° C. overnight. After the bound biotin-labeled CRO, AS411, or iSN04 and its captured proteins on the gel beads were washed multiple times with an IP lysis buffer (purchased from Thermo Scientific, Cat. No.: 87788), an SDS-PAGE protein loading buffer (purchased from Beyotime, Cat. No.: P0015) was added, and the mixture was heated to 100° C. and held for 10 min. After centrifugation, the supernatant was collected as a pull-down product. The pull-down product was detected by western blot assay.

[4] = phase I and phase II clinical trials; cited from earlier work
[5] = test system: MCF 10A human normal mammary epithelial cells; experiment: Toxicity to normal cells, cell apoptosis proportion by flow cytometer; assay type: cell-based; details: 0-5000 nM, 4 days, medium renewed every day
Experimental: The toxicity of AS1411 to normal cells was compared with that of the small molecule ligand nutlin-3a of MDM2 to normal cells. AS1411 or nutlin-3a at different concentrations (0 nM, 500 nM, 1000 nM, and 5000 nM) was incubated with MCF 10A human normal mammary epithelial cells for 4 days, and the medium containing the respective concentrations of AS1411 or nutlin-3a was renewed every day. The cell apoptosis proportion was detected using a flow cytometer.

STAT3 = STAT3 (Homo sapiens, UniProt P40763); experiment: STAT3 protein degradation in HOS osteosarcoma cells, western blot; assay type: cell-based; parameters: endogenous in cells; details: 500 nM, 6 h
Sequence of STAT3 (P40763 whole entry): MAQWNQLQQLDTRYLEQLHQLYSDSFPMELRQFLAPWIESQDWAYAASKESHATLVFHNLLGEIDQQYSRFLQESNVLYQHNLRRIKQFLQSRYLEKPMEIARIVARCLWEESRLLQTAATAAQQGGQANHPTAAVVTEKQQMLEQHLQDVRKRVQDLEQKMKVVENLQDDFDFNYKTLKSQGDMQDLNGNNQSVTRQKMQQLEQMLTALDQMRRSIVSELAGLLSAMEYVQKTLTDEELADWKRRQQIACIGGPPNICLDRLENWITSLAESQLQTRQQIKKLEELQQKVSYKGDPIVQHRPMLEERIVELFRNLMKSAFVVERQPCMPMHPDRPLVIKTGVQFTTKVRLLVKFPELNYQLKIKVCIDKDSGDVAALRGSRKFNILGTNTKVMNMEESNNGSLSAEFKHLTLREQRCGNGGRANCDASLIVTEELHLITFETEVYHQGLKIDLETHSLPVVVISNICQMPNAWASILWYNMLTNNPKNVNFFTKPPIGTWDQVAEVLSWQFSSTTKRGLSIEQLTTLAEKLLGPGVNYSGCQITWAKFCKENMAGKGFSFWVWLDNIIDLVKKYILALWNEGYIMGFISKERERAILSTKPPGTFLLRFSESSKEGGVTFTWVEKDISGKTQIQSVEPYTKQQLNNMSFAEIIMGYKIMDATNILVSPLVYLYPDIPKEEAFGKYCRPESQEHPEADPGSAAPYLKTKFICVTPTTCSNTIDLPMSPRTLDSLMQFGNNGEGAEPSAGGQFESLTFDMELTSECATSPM
Experimental: HOS osteosarcoma cells were incubated with 500 nM double-stranded transcription factor decoy oligonucleotide S3, AS1411, the first PROTAC product 1411-S3-1, the second PROTAC product 1411-S3-2, or AS1411+double-stranded transcription factor decoy oligonucleotide S3. After 6 h, cell samples were collected for protein extraction and subsequent western blot assay.

MDM2 [6] = target: T2, MDM2 (Homo sapiens, UniProt P19338+Q00987); experiment: MDM2 protein degradation in A549 non-small cell lung cancer cells, western blot; assay type: cell-based
T2 construct: endogenous in cells; host or cells: A549
T2 sequence (Q00987 whole entry): as the sequence (Q00987 whole entry) above
T2 sequence (P19338 2-710 limits assumed): as the sequence (P19338 2-710 partner limits assumed) above
Experimental: (1) A549 non-small cell lung cancer cells were incubated with 200 nM AS1411-VH032, and corresponding cell samples were collected at time gradients of 0 h, 3 h, 6 h, 9 h, 12 h, and 24 h for protein extraction and subsequent western blot assay to detect protein degradation.
(2) A549 non-small cell lung cancer cells were incubated with AS1411-VH032 at concentrations of 0 nM, 50 nM, 100 nM, 150 nM, 200 nM, and 250 nM. After 3 h, cell samples were collected for protein extraction and subsequent western blot assay to detect protein degradation.
(3) A549 non-small cell lung cancer cells were incubated with 200 nM AS1411, VH032, AS1411-VH032, or AS1411+VH032. After 3 h, cell samples were collected for protein extraction and subsequent western blot assay to detect protein degradation.
(4) A549 non-small cell lung cancer cells were incubated with 200 nM AS1411-VH032 for 3 h, and proteasome inhibitor MG132 was added. Cell samples were collected for protein extraction and subsequent western blot assay.
(5) A549 non-small cell lung cancer cells were transfected with si-NC or si-NCL and subsequently incubated with 200 nM AS1411-VH032 for 3 h. Cell samples were collected for protein extraction and subsequent western blot assay.
(1) A549 non-small cell lung cancer cells were incubated with 1000 nM AS1411-AS1411, and corresponding cell samples were collected at time gradients of 0 h, 3 h, 6 h, 9 h, 12 h, and 24 h for protein extraction and subsequent western blot assay to detect protein degradation.
(2) A549 non-small cell lung cancer cells were incubated with AS1411-AS1411 at concentrations of 0 nM, 50 nM, 100 nM, 250 nM, 500 nM, and 1000 nM. After 12 h, cell samples were collected for protein extraction and subsequent western blot assay to detect protein degradation.
(3) A549 non-small cell lung cancer cells were incubated with 1000 nM AS1411, AS1411-AS1411, or AS1411+AS1411. After 12 h, cell samples were collected for protein extraction and subsequent western blot assay to detect protein degradation. […]

AS1411: DNA aptamer, GRO binding NCL, SEQ ID NO: 1: 5′-GGTGGTGGTGGTTGTGGTGGTGGTGG-3′
binding ability to HeLa cells [1]: can significantly bind to HeLa cells | recruitment of MDM2 when NCL is silenced (MDM2 [2]): silencing NCL can block the recruitment of MDM2 by AS1411 | capture of MDM2 (MDM2 [3]): can capture NCL and MDM2 in a concentration-dependent manner | safety in clinical trials [4]: good safety | toxicity to normal cells (cell apoptosis proportion) [5]: has no significant toxicity | protein level of STAT3 (STAT3): only the first PROTAC product 1411-S3-1 and the second PROTAC product 1411-S3-2 can reduce the protein level of transcription factor STAT3 | protein level of MDM2 (MDM2 [6]; A549, 200 nM, 3 h): neither AS1411, VH032, nor AS1411+VH032 can reduce the protein level of MDM2 | protein level of MDM2 (MDM2 [6]; A549, 1000 nM, 12 h): neither AS1411 nor AS1411+AS1411 can reduce the protein level of MDM2
